Data from patent publication US12622915B2, “Methods of treating PDE IV-mediated diseases or conditions” (Vanda Pharmaceuticals Inc., priority 2020, dated 2026).

Tested on: IMQ induced psoriasis
Protocol: Test Item Details • 1. Dexamethasone Cat. or Batch no.: BCBM4557V (sigma) • Vehicle for dexamethasone (Veh.1): acetone:ethanol (1:1) • Dose: 0.1 mg/ear & 0.25 mg in back skin • Dose volume: 20 μL/ear & 50 μL on back skin • 2. Crisaborole: PZ0037 (Sigma) • Vehicle (Veh.1): acetone:ethanol (1:1) • Dose: 0.1 mg/ear & 0.25 mg in back skin • Dose volume: 20 μL/ear, 50 μL on back skin • 3. Compound of Formula (I) • Vehicle (Veh.1): acetone:ethanol (1:1) • Dose: 0.1 mg/ear & 0.25 mg in back skin • Dose volume: 20 μL/ear, 50 μL on back skin Dexamethasone and Test Item Preparation and Application: • Strength=5 mg/ml
Application=100 μg/20 pit per each ear+250 μg/50 μL on the back G2 to G4 receive Dexamethasone, Crisaborole or test item: Daily topical treatment (D0-D6): 0.1 mg in 20 μl per ear x both the ears+0.25 mg in 50 μl (on the back) 6-8 hrs after IMQ application.
Disease Induction: Application of 5% IMQ cream 40 mg (back) and 5 mg (per ear—Inner surface) daily from day 0-6.
Treatment: 0.5% Dexamethasone solution: 0.25 mg (back) and 0.1 mg (per ear) 8 hrs post IMQ. • Day −2—Depilation on back region • Day 0—Observations (Body weight; ear thickness using digital microcaliper) • Day 2—Observations (Body weight; ear thickness using digital microcaliper) • Day 4—Observations (Body weight; ear thickness using digital microcaliper) • Day 6—Observations (Body weight; ear thickness using digital microcaliper); Blood collection (PK) and Termination {2 hrs after last dose) • Ear collection: PK, Cytokine, MPO, Thickness • Back skin collection, scoring and thickness measurement • Histopathology (optional)
The dorsal posterior area (2 cm×2 cm) of animals is depilated using a hair trimmer. 5% Imiquimod cream: 50 mg/animal (40 mg on the shaved back+5 mg each on the inner part of right and left ear) QD is applied on days 0 to 5 (Groups 1-4).
The body weight is recorded individually for all animals at receipt, day of randomization, prior to treatment, and once in two days thereafter. The animals are observed for mortality at regular intervals.
2 hrs post compound treatment on day 6, all the animals are euthanized, and ear tissues are collected. The right ear is flash frozen in liquid nitrogen and stored at −80° C. until homogenization for MPO and cytokine estimation.
The half of the left ear is used for drug concentration measurement. The other half of the left ear tissue is used for histopathology. The back skin is collected for visual assessment (scoring) and histopathology.
MPO analysis: Snap frozen ear tissue samples are homogenized in 1× assay buffer provided in the kit. The homogenates are centrifuged at 8000 g for 10 minutes in a refrigerated centrifuge. The supernatants are discarded, and the pellet is resuspended in solubilisation buffer (1× assay buffer containing 0.5% HTABr). The samples are homogenized and subjected to three rounds of freeze thaw followed by brief sonication for 10s. The samples are centrifuged at 12,000 g for 10 minutes in a refrigerated centrifuge and the resulting supernatants are analysed for MPO levels based on a fluorometric detection kit. The Kit utilizes a non-fluorescent detection reagent, which is oxidized in the presence of hydrogen peroxide and MPO to produce its fluorescent analogue. (Enzo Life Sciences; ADI-907-029).
Histopathology: At study termination, posterior dorsal skin and ear skin samples are collected. Skin samples are processed using routine histopathological methods and 4-5 μm paraffin sections are prepared. Tissue sections (3 serial sections/animal) are stained with Hematoxylin and eosin (H&E) to evaluate acanthosis, hyper/parakeratosis and inflammatory cellular infiltration in dermis. Severity of lesions are assessed semi quantitatively on a scale of 0-4 by two independent pathologists (0—normal, 1—mild degree, 2—moderate degree, 3—severe degree and 4—extensive or multiple locations) for each parameter in a blinded manner.

Compound | MPO activity in ear tissue homogenates (day 6, topical 0.5%, vs IMQ control) | Back skin thickness (day 6 at termination, topical 0.5%, vs IMQ control) | Cumulative clinical scores (erythema, skin thickness, scales) (topical 0.5%, back skin, maximum score 12, vs IMQ control) | Ear thickness (topical 0.5%, daily, vs IMQ control) | Overall cumulative HP scores of ear skin (topical 0.5%, maximum score 16, vs IMQ control) | Spleen weight or normalized spleen weight (topical 0.5%, vs IMQ control) | Cytokine levels in ear tissue homogenates (topical treatment, vs IMQ control) | Body weight / body weight loss (mouse, in vivo)
N#Cc1ccc(Oc2ccc3c(c2)COB3O)cc1 [Crisaborole, reference compound] | do not show significant inhibition | do not show significant reduction | significant reduction in the cumulative clinical scores on day 6 | significant reduction in ear thickness on day 6 | significant reduction | do not show significant reduction | significant reduction in few of the proinflammatory cytokines | 
C[C@@H]1C[C@H]2[C@@H]3CCC4=CC(=O)C=C[C@]4(C)[C@@]3(F)[C@@H](O)C[C@]2(C)[C@@]1(O)C(=O)CO [Dexamethasone, reference compound] |  |  |  |  |  |  |  | significant body weight loss
